Test system: KRAS PDC multicell spheroid viability
Assay: Anticancer human tumor 521955-158-R6-J3-PDC patient-derived pancreatic carcinoma cell line growth inhibition [KRAS2]
Conditions: for IC50: curve of first compound; for viability, T/C: stronger effect = lower value
Method in brief: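 Combination screen of spheroid viability in tumor-cell co-cultures with endothelial (HUVEC) and mesenchymal stem cell stroma. Each agent was tested in half-log dilutions, topping at clinical Cmax or at 10 microM without a known Cmax.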

[1] = second compound 0.0316 µM, first compound 0.01 µM
[2] = second compound 0.0316 µM, first compound 0.0316 µM
[3] = second compound 0.0316 µM, first compound 0.1 µM
[4] = second compound 0.0316 µM, first compound 0.316 µM
[5] = second compound 0.0316 µM, first compound 1 µM
[6] = second compound 0.0316 µM, first compound 3.16 µM
[7] = second compound 0.1 µM, first compound 0.01 µM
[8] = second compound 0.1 µM, first compound 0.0316 µM
[9] = second compound 0.1 µM, first compound 0.1 µM
[10] = second compound 0.1 µM, first compound 0.316 µM
[11] = second compound 0.1 µM, first compound 1 µM
[12] = second compound 0.1 µM, first compound 3.16 µM
[13] = second compound 0.316 µM, first compound 0.01 µM
[14] = second compound 0.316 µM, first compound 0.0316 µM
[15] = second compound 0.316 µM, first compound 0.1 µM
[16] = second compound 0.316 µM, first compound 0.316 µM
[17] = second compound 0.316 µM, first compound 1 µM
[18] = second compound 0.316 µM, first compound 3.16 µM
[19] = second compound 1 µM, first compound 0.01 µM
[20] = second compound 1 µM, first compound 0.0316 µM
[21] = second compound 1 µM, first compound 0.1 µM
[22] = second compound 1 µM, first compound 0.316 µM
[23] = second compound 1 µM, first compound 1 µM
[24] = second compound 1 µM, first compound 3.16 µM
[25] = second compound 3.16 µM, first compound 0.01 µM
[26] = second compound 3.16 µM, first compound 0.0316 µM
[27] = second compound 3.16 µM, first compound 0.1 µM
[28] = second compound 3.16 µM, first compound 0.316 µM
[29] = second compound 3.16 µM, first compound 1 µM
[30] = second compound 3.16 µM, first compound 3.16 µM
[31] = second compound 0.0316 µM, first compound 10 µM
[32] = second compound 0.1 µM, first compound 10 µM
[33] = second compound 0.316 µM, first compound 10 µM
[34] = second compound 1 µM, first compound 10 µM
[35] = second compound 3.16 µM, first compound 10 µM
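Further: drug exposure lasted seven days.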
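Wherever viability, T/C is given: 100% = DMSO vehicle wells and lower means fewer viable cells.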

SMILES	IC50 (second compound 0.0316 µM) [µM]	IC50 (second compound 0.1 µM) [µM]	IC50 (second compound 0.316 µM) [µM]	IC50 (second compound 1 µM) [µM]	IC50 (second compound 3.16 µM) [µM]	viability, T/C [2] [%]	viability, T/C [3] [%]	viability, T/C [4] [%]	viability, T/C [5] [%]	viability, T/C [8] [%]	viability, T/C [9] [%]	viability, T/C [10] [%]	viability, T/C [11] [%]	viability, T/C [14] [%]	viability, T/C [15] [%]	viability, T/C [16] [%]	viability, T/C [17] [%]	viability, T/C [20] [%]	viability, T/C [21] [%]	viability, T/C [22] [%]	further results
CC1COCCN1c1cc(-c2ccnn2C)c2ccnc(-c3ccn[nH]3)c2n1 (stereo not given) + C=CC(=O)N1CCN(c2nc(OCC3CCCN3C)nc3c2CCN(c2cccc4cccc(C)c24)C3)CC1CC#N	> 3.16	> 3.16	> 3.16	> 3.16	0.0121	90.2	89.7	79.8	78.8	95.3	77	71.4	75	85.1	73.1	74.7	73.6	79	68	69.4	viability, T/C [1]: 88%; viability, T/C [6]: 92.9%; viability, T/C [7]: 92.6%; viability, T/C [12]: 94.5%; viability, T/C [13]: 89.5%; viability, T/C [18]: 76.8%; viability, T/C [19]: 71.7%; viability, T/C [23]: 59.9%; viability, T/C [24]: 71.7%; viability, T/C [25]: 52.2%; viability, T/C [26]: 39.7%; viability, T/C [27]: 31.9%; viability, T/C [28]: 36.5%; viability, T/C [29]: 27.6%; viability, T/C [30]: 45.8%
CC1OCC2(CCN(c3cnc(Sc4ccnc(N)c4Cl)c(N)n3)CC2)C1N (stereo not given) + C=CC(=O)N1CCN(c2nc(OCC3CCCN3C)nc3c2CCN(c2cccc4cccc(C)c24)C3)CC1CC#N	> 10	> 10	> 10	> 10	< 0.0316	88.4	103	92.2	96	92.7	97.4	84.2	86.1	87.5	86.1	85	90.4	75.7	68.7	64.9	viability, T/C [6]: 114%; viability, T/C [31]: 109%; viability, T/C [12]: 114%; viability, T/C [32]: 114%; viability, T/C [18]: 101%; viability, T/C [33]: 106%; viability, T/C [23]: 67.4%; viability, T/C [24]: 90.2%; viability, T/C [34]: 113%; viability, T/C [26]: 40.8%; viability, T/C [27]: 32.3%; viability, T/C [28]: 25.2%; viability, T/C [29]: 37.3%; viability, T/C [30]: 28.9%; viability, T/C [35]: 23.7%
CCN1CCN(Cc2ccc(Nc3ncc(F)c(-c4cc(F)c5nc(C)n(C(C)C)c5c4)n3)nc2)CC1 + C=CC(=O)N1CCN(c2nc(OCC3CCCN3C)nc3c2CCN(c2cccc4cccc(C)c24)C3)CC1CC#N	> 1	> 1	> 1	> 1	< 0.00316	76	76.1	82.8	95.1	81.4	85.7	82.9	98.8	76.5	77.2	87.8	91.9	71.3	65.2	79.9	viability, T/C (second compound 0.0316 µM, first compound 0.00316 µM): 94.4%; viability, T/C [1]: 81.9%; viability, T/C (second compound 0.1 µM, first compound 0.00316 µM): 88.3%; viability, T/C [7]: 93.6%; viability, T/C (second compound 0.316 µM, first compound 0.00316 µM): 86.1%; viability, T/C [13]: 86.4%; viability, T/C (second compound 1 µM, first compound 0.00316 µM): 72%; viability, T/C [19]: 84.5%; viability, T/C [23]: 103%; viability, T/C (second compound 3.16 µM, first compound 0.00316 µM): 24.9%; viability, T/C [25]: 26.4%; viability, T/C [26]: 25.9%; viability, T/C [27]: 17.1%; viability, T/C [28]: 15.3%; viability, T/C [29]: 4.09%
CCNC(=O)CC1N=C(c2ccc(Cl)cc2)c2cc(OC)ccc2-n2c(C)nnc21 (stereo not given) + C=CC(=O)N1CCN(c2nc(OCC3CCCN3C)nc3c2CCN(c2cccc4cccc(C)c24)C3)CC1CC#N	> 10	> 10	> 10	> 10	0.101	106	87.1	64.3	74.9	88.6	102	78.4	69.3	101	93.2	76	74.5	86.6	83.9	77.8	viability, T/C [6]: 83.2%; viability, T/C [31]: 76.6%; viability, T/C [12]: 73.1%; viability, T/C [32]: 75.9%; viability, T/C [18]: 77.1%; viability, T/C [33]: 69.2%; viability, T/C [23]: 62.2%; viability, T/C [24]: 69.6%; viability, T/C [34]: 81%; viability, T/C [26]: 47%; viability, T/C [27]: 53.1%; viability, T/C [28]: 30.5%; viability, T/C [29]: 1.65%; viability, T/C [30]: 31%; viability, T/C [35]: 35.1%
